Read-outs that look alike come from different tables or passages of the source.
Tests used:
[1] = test system: E. coli csrA::kanB pBAD-nahK; assay: microbe, parasite or virus in culture; parameters: species or system E. coli MG1655 csrA::kanB; details: Escherichia coli, read-out: pBAD-nahK [Ara] = 50 mg/L
[2] = test system: E. coli csrA::kanB pBAD-nahKm; assay: microbe, parasite or virus in culture; parameters: species or system E. coli MG1655 csrA::kanB; details: Escherichia coli, read-out: pBAD-nahKm [Ara] = 50 mg/L
[3] = test system: E. coli csrA::kanB pBAD-nahK; assay: microbe, parasite or virus in culture; parameters: species or system E. coli MG1655 csrA::kanB; details: Escherichia coli, read-out: pBAD-nahK [Ara] = 0 mg/L
E. coli csrA::kanB = assay: microbe, parasite or virus in culture; parameters: species or system E. coli MG1655 csrA::kanB; details: Escherichia coli, read-out: csrA::kanB [Ara] = 0 mg/L
[4] = test system: E. coli csrA::kanB pBAD-nahK; assay: microbe, parasite or virus in culture; parameters: species or system E. coli MG1655 csrA::kanB; details: Escherichia coli, read-out: pBAD-nahK [Ara] = 50 mg/L, DTT
[5] = target: T1, PgaCDm (PgaC V227L PgaD N75D/K76E) (Escherichia coli, UniProt P75905, V227L); assay: WGA-HRP dot blot of PNAG, densitometry; format: biochemical
T1 sequence (P75905 1-441 V227L): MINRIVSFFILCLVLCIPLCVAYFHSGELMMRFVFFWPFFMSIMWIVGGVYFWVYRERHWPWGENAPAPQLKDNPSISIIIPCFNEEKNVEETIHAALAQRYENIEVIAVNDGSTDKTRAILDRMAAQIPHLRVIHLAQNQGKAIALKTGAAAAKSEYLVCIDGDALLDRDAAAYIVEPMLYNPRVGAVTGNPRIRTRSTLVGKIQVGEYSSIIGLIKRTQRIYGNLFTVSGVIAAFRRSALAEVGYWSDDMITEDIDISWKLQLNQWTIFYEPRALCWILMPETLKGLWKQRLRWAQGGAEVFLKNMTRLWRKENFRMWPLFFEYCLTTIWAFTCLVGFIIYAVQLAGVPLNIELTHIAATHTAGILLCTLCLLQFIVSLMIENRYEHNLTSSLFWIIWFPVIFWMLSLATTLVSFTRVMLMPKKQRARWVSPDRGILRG
T1 sequence (P69432 1-137 N75D/K76E partner): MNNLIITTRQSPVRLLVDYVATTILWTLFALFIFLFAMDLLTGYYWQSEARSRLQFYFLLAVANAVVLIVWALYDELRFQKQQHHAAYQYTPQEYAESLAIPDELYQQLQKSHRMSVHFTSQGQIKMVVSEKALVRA

IC50 [1] | IC50 [2] | IC50 [3] | SMILES | IC50 [5] | other results
13 ± 3 µM | > 2 mM | > 2 mM | CC(=O)N[C@H]1C(O)O[C@H](CF)[C@@H](O)[C@@H]1O (mixture of isomers) [1-F, 6-fluoroGlcNAc] |  | 
8 ± 2 µM | 0.5 ± 0.1 mM | 0.33 ± 0.01 mM | CC(=O)N[C@H]1C(O)O[C@H](C)[C@@H](O)[C@@H]1O (mixture of isomers) [1-H, 6-deoxyGlcNAc] |  | IC50 (E. coli csrA::kanB): 530 ± 30 µM
150 ± 60 µM | > 2 mM | > 2 mM | CC(=O)NC1C(O)OC(CN)C(O)C1O (centres unmarked) [1-NH2, 6-aminoGlcNAc] |  | 
130 µM | > 2 mM | > 2 mM | CC(=O)NC1C(O)OC(CS)C(O)C1O (centres unmarked) [1-SH, 6-thioGlcNAc] |  | IC50 [4]: 64 ± 2 µM
 |  |  | CC(=O)N[C@H]1[C@@H](OP(=O)(O)OP(=O)(O)OC[C@H]2O[C@@H](n3ccc(=O)[nH]c3=O)[C@H](O)[C@@H]2O)O[C@H](CF)[C@@H](O)[C@@H]1O [2-F, UDP-6-fluoroGlcNAc] | 150 ± 10 µM | 
 |  |  | CC(=O)N[C@H]1[C@@H](OP(=O)(O)OP(=O)(O)OC[C@H]2O[C@@H](n3ccc(=O)[nH]c3=O)[C@H](O)[C@@H]2O)O[C@H](C)[C@@H](O)[C@@H]1O [2-H, UDP-6-deoxyGlcNAc] | 30 µM | 
 |  |  | CC(=O)N[C@H]1[C@@H](OP(=O)(O)OP(=O)(O)OC[C@H]2O[C@@H](n3ccc(=O)[nH]c3=O)[C@H](O)[C@@H]2O)O[C@H](CN=[N+]=[N-])[C@@H](O)[C@@H]1O [2-N3, 6-azido analogue] | > 10000 µM | 
 |  |  | CC(=O)N[C@H]1[C@@H](OP(=O)(O)OP(=O)(O)OC[C@H]2O[C@@H](n3ccc(=O)[nH]c3=O)[C@H](O)[C@@H]2O)O[C@H](CN)[C@@H](O)[C@@H]1O [2-NH2, 6-amino derivative] | 480 ± 60 µM | 
 |  |  | CC(=O)N[C@H]1[C@@H](OP(=O)(O)OP(=O)(O)OC[C@H]2O[C@@H](n3ccc(=O)[nH]c3=O)[C@H](O)[C@@H]2O)O[C@H](CS)[C@@H](O)[C@@H]1O [2-SH, UDP-6-thioGlcNAc] | 60 ± 20 µM | 
 |  |  | O=c1ccn([C@@H]2O[C@H](COP(=O)(O)OP(=O)(O)O)[C@@H](O)[C@H]2O)c(=O)[nH]1 [UDP] | 2700 ± 900 µM | 

SMILES | IC50 [1] | IC50 [2] | IC50 [3] | IC50 [5] | other results
CC(=O)NC1C(O)OC(CN=[N+]=[N-])C(O)C1O (centres unmarked) [1-N3, 6-azidoGlcNAc] | 2700 ± 400 µM | > 5 mM | > 5 mM |  | 

— paper doi:10.1101/2021.10.13.464265v1 (biorxiv, 2021)
